Test results as given in patent publication US20230085307A1, “PYRIDAZINONE COMPOUND AND HERBICIDE” (NISSAN CHEMICAL CORPORATION, priority 2019, published 2023).

Tests used:
late watergrass = test: Test Example 1: herbicidal activity, application before weed generation under submerged conditions (Table 16, symbol A); assay type: in vivo, late watergrass (Echinochloa oryzicola); settings: 320 g/ha applied herbicide
Outline: (§1)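 Alluvial soil was flooded to 4 cm depth, weed seeds were sown mixed and 2.5-leaf rice seedlings were transplanted. On sowing day, the compound's emulsion, diluted in water to a set dose, was applied to the water surface. Plants grew at 25–30 °C and were scored 0–5 after three weeks.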

oval-leafed pondweed = test: Test Example 1: herbicidal activity, application before weed generation under submerged conditions (Table 16, symbol C); assay type: in vivo, oval-leafed pondweed (Monochoria vaginalis); settings: 320 g/ha applied herbicide
Outline: as §1

Japanese bulrush = test: Test Example 2: herbicidal activity, application during weed generation under submerged conditions (Table 17, symbol B); assay type: in vivo, Japanese bulrush (Schoenoplectus juncoides); settings: AAH 320 g/ha; application during weed generation, submerged conditions
Outline: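 Herbicide emulsion, diluted with water to the chosen amount, is applied onto 4 cm floodwater over alluvial soil where the weeds were co-sown and raised at 25–30° C. Application timing: 1–2 leaves. Assessment: three weeks afterwards.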

barnyard grass [1] = test: Test Example 3: herbicidal effect by foliage application, Wagner pot (Table 18, symbol H); assay type: in vivo, barnyard grass (Echinochloa crus-galli); settings: for herbicidal effect on H (barnyard grass), rating 0-5: 320 g/ha
Outline: (§2)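 Plants were sown in alluvial soil held under 0.1–0.5 cm standing water and grown 14 days in a greenhouse at 25–30 °C. An emulsifiable formulation, water-diluted to the set dose, was then sprayed onto the foliage, and effects were scored three weeks later using previously defined criteria.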

rice flat sedge = test: Test Example 3: herbicidal effect by foliage application, Wagner pot (Table 18, symbol E); assay type: in vivo, rice flat sedge (Cyperus iria); settings: for herbicidal effect on E (rice flat sedge), rating 0-5: 320 g/ha
Outline: as §2

green foxtail [2] = test: Test Example 4: herbicidal effect by soil treatment (Table 19, symbol G); assay type: in vivo, green foxtail (Setaria viridis)
Outline: (§3)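 Emulsion of test compound, water-diluted to predetermined amount, sprayed on soil after sowing (seed depth ~1.5 cm, sterilized diluvial soil). Greenhouse, 25–30° C. Effect graded at three weeks post-spray.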

barnyard grass [3] = test: Test Example 4: herbicidal effect by soil treatment (Table 19, symbol H); assay type: in vivo, barnyard grass (Echinochloa crus-galli)
Outline: as §3

velvetleaf = test: Test Example 4: herbicidal effect by soil treatment (Table 19, symbol M); assay type: in vivo, velvetleaf (Abutilon theophrasti)
Outline: as §3

redroot pigweed [4] = test: Test Example 4: herbicidal effect by soil treatment (Table 19, symbol N); assay type: in vivo, redroot pigweed (Amaranthus retroflexus)
Outline: as §3

chickweed [5] = test: Test Example 4: herbicidal effect by soil treatment (Table 19, symbol P); assay type: in vivo, common chickweed (Stellaria media)
Outline: as §3

southern crabgrass = test: Test Example 5: herbicidal effect by foliage application, plastic box (Table 20, symbol F); assay type: in vivo, southern crabgrass (Digitaria ciliaris); settings: foliage application
Outline: (§4)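 Post-emergence foliar test in sterilized diluvial soil. Compound applied as water-diluted emulsion at a predetermined rate to 14-day-old plants; evaluation at three weeks.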

green foxtail [6] = test: Test Example 5: herbicidal effect by foliage application, plastic box (Table 20, symbol G); assay type: in vivo, green foxtail (Setaria viridis); settings: foliage application
Outline: as §4

blackgrass = test: Test Example 5: herbicidal effect by foliage application, plastic box (Table 20, symbol J); assay type: in vivo, blackgrass (Alopecurus myosuroides); settings: foliage application
Outline: as §4

Italian ryegrass = test: Test Example 5: herbicidal effect by foliage application, plastic box (Table 20, symbol K); assay type: in vivo, Italian ryegrass (Lolium multiflorum); settings: foliage application
Outline: as §4

redroot pigweed [7] = test: Test Example 5: herbicidal effect by foliage application, plastic box (Table 20, symbol N); assay type: in vivo, redroot pigweed (Amaranthus retroflexus); settings: foliage application
Outline: as §4

chickweed [8] = test: Test Example 5: herbicidal effect by foliage application, plastic box (Table 20, symbol P); assay type: in vivo, common chickweed (Stellaria media); settings: foliage application
Outline: as §4

[9] = amount of applied herbicide 320 g/ha
[10] = AAH 320 g/ha, three weeks after application
[11] = 320 g/ha, evaluated three weeks after application

C=CCOc1ccccc1-c1sc2ccccc2c1-c1c(O)c(C)nn(C)c1=O [1-110]
Herbicidal effect on A: late watergrass (grade 0-5) (late watergrass): 3 (Herbicidal rate of 40% or more and less than 70%) | Herbicidal effect on C: oval-leafed pondweed (grade 0-5) (oval-leafed pondweed): 4 (Herbicidal rate of 70% or more and less than 90%) | herbicidal effect rating, B: Japanese bulrush (Japanese bulrush): 2 (Herbicidal rate of 20% or more and less than 40%) | herbicidal effect on H (barnyard grass), rating 0-5 (barnyard grass [1]): 4 (Herbicidal rate of 70% or more and less than 90%) | herbicidal effect on E (rice flat sedge), rating 0-5 (rice flat sedge): 4 (Herbicidal rate of 70% or more and less than 90%) | herbicidal effect rating, G: green foxtail (green foxtail [2]; [9]): 3 (Herbicidal rate of 40% or more and less than 70%) | herbicidal effect rating, H: barnyard grass (barnyard grass [3]; [9]): 3 (Herbicidal rate of 40% or more and less than 70%) | herbicidal effect rating, M: velvetleaf (velvetleaf; [9]): 1 (Herbicidal rate of 5% or more and less than 20%) | herbicidal effect rating, N: redroot pigweed (redroot pigweed [4]; [9]): 0 (Herbicidal rate of 5% or less (almost no effect)) | herbicidal effect rating, P: chickweed (chickweed [5]; [9]): 3 (Herbicidal rate of 40% or more and less than 70%) | F: southern crabgrass, herbicidal effect (southern crabgrass; [10]): 4 (Herbicidal rate of 70% or more and less than 90%) | G: green foxtail, herbicidal effect (green foxtail [6]; [10]): 4 (Herbicidal rate of 70% or more and less than 90%) | J: blackgrass, herbicidal effect (blackgrass; [10]): 4 (Herbicidal rate of 70% or more and less than 90%) | K: Italian ryegrass, herbicidal effect (Italian ryegrass; [10]): 0 (Herbicidal rate of 5% or less (almost no effect)) | N: redroot pigweed, herbicidal effect (redroot pigweed [7]; [10]): 0 (Herbicidal rate of 5% or less (almost no effect)) | P: chickweed, herbicidal effect (chickweed [8]; [10]): 5 (Herbicidal rate of 90% or more (almost completely withered))

C#CCOc1ccc(-c2sc3ccc(F)cc3c2-c2c(OCOCCOC)c(C)nn(C)c2=O)cc1 [2-055]
Herbicidal effect on A: late watergrass (grade 0-5) (late watergrass): 0 (Herbicidal rate of 5% or less (almost no effect)) | Herbicidal effect on C: oval-leafed pondweed (grade 0-5) (oval-leafed pondweed): 1 (Herbicidal rate of 5% or more and less than 20%) | herbicidal effect rating, B: Japanese bulrush (Japanese bulrush): 3 (Herbicidal rate of 40% or more and less than 70%) | herbicidal effect on H (barnyard grass), rating 0-5 (barnyard grass [1]): 5 (Herbicidal rate of 90% or more (almost completely withered)) | herbicidal effect on E (rice flat sedge), rating 0-5 (rice flat sedge): 4 (Herbicidal rate of 70% or more and less than 90%) | herbicidal effect rating, G: green foxtail (green foxtail [2]; 320 g/ha): 4 (Herbicidal rate of 70% or more and less than 90%) | herbicidal effect rating, H: barnyard grass (barnyard grass [3]; 320 g/ha): 3 (Herbicidal rate of 40% or more and less than 70%) | herbicidal effect rating, M: velvetleaf (velvetleaf; 320 g/ha): 3 (Herbicidal rate of 40% or more and less than 70%) | herbicidal effect rating, N: redroot pigweed (redroot pigweed [4]; 320 g/ha): 4 (Herbicidal rate of 70% or more and less than 90%) | herbicidal effect rating, P: chickweed (chickweed [5]; 320 g/ha): 3 (Herbicidal rate of 40% or more and less than 70%) | herbicidal effect on F: southern crabgrass (southern crabgrass; [11]): 1 (Herbicidal rate of 5% or more and less than 20%) | herbicidal effect on G: green foxtail (green foxtail [6]; [11]): 5 (Herbicidal rate of 90% or more (almost completely withered)) | herbicidal effect on J: blackgrass (blackgrass; [11]): 3 (Herbicidal rate of 40% or more and less than 70%) | herbicidal effect on K: Italian ryegrass (Italian ryegrass; [11]): 3 (Herbicidal rate of 40% or more and less than 70%) | herbicidal effect on N: redroot pigweed (redroot pigweed [7]; [11]): 5 (Herbicidal rate of 90% or more (almost completely withered)) | herbicidal effect on P: chickweed (chickweed [8]; [11]): 5 (Herbicidal rate of 90% or more (almost completely withered))

Cc1nn(C)c(=O)c(-c2c(-c3ccc(C(F)F)cc3)sc3ccc(F)cc23)c1O [2-227]
Herbicidal effect on A: late watergrass (grade 0-5) (late watergrass): 3 (Herbicidal rate of 40% or more and less than 70%) | Herbicidal effect on C: oval-leafed pondweed (grade 0-5) (oval-leafed pondweed): 0 (Herbicidal rate of 5% or less (almost no effect)) | herbicidal effect rating, B: Japanese bulrush (Japanese bulrush): 2 (Herbicidal rate of 20% or more and less than 40%) | herbicidal effect on H: barnyard grass (barnyard grass [1]; [9]): 5 (Herbicidal rate of 90% or more (almost completely withered)) | herbicidal effect on E: rice flat sedge (rice flat sedge; [9]): 5 (Herbicidal rate of 90% or more (almost completely withered)) | herbicidal effect on G: green foxtail (green foxtail [2]; [9]): 4 (Herbicidal rate of 70% or more and less than 90%) | herbicidal effect on H: barnyard grass (barnyard grass [3]; [9]): 5 (Herbicidal rate of 90% or more (almost completely withered)) | herbicidal effect on M: velvetleaf (velvetleaf; [9]): 5 (Herbicidal rate of 90% or more (almost completely withered)) | herbicidal effect on N: redroot pigweed (redroot pigweed [4]; [9]): 5 (Herbicidal rate of 90% or more (almost completely withered)) | herbicidal effect on P: chickweed (chickweed [5]; [9]): 5 (Herbicidal rate of 90% or more (almost completely withered)) | herbicidal effect on F: southern crabgrass (criteria 0-5) (southern crabgrass; [11]): 5 (Herbicidal rate of 90% or more (almost completely withered)) | herbicidal effect on G: green foxtail (criteria 0-5) (green foxtail [6]; [11]): 4 (Herbicidal rate of 70% or more and less than 90%) | herbicidal effect on J: blackgrass (criteria 0-5) (blackgrass; [11]): 3 (Herbicidal rate of 40% or more and less than 70%) | herbicidal effect on K: Italian ryegrass (criteria 0-5) (Italian ryegrass; [11]): 4 (Herbicidal rate of 70% or more and less than 90%) | herbicidal effect on N: redroot pigweed (criteria 0-5) (redroot pigweed [7]; [11]): 5 (Herbicidal rate of 90% or more (almost completely withered)) | herbicidal effect on P: chickweed (criteria 0-5) (chickweed [8]; [11]): 5 (Herbicidal rate of 90% or more (almost completely withered))
